According to patent publication US5807535A, “Metal complexes of hydroxyaryl containing aminocarboxylic acid chelating agents” (Australian Nuclear Science & Technology Organisation, priority 1992, dated 1998):
Read-outs that look alike come from different tables or passages of the source.

Columns and labels:
[1] = Biodistribution of 99mTc complexes in rats; assay type: in vivo, Australian Albino Wistar Rats; conditions: rat, rats; for tissue uptake at 0.5 min: 30 sec; for tissue uptake at 0.05 h: 3 min
Outline: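 Chelators were dissolved in basic saline, brought to about pH 6 with HCl, and reduced with excess stannous chloride before one equivalent volume of sodium 99mTcO4 (10-50 mCi/ml) was added, giving roughly 1 mg/ml chelator. Labelling efficacy was checked by ITLC-SG. Complexes were diluted in saline to 15 μCi/100 μl for rat biodistribution, with tissue uptake expressed as %ID/g.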

[2] = Biodistribution of 67Ga complexes in mice; assay type: in vivo, balb/c mice
Outline: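 Ligand labelled with 67Ga citrate at pH 12, 40 °C for 40 min, diluted in saline and filter-sterilised. Balb/c mice given ~3.7×10^5 Bq intravenously via tail vein; five animals sacrificed at each of six time points.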

[3] = blood, read-out: biodistribution blood
[4] = bone, read-out: biodistribution bone
[5] = brain, read-out: biodistribution brain
[6] = eyes, read-out: biodistribution eyes
[7] = heart, read-out: biodistribution heart
[8] = kidneys, read-out: biodistribution kidneys
[9] = liver, read-out: biodistribution liver
[10] = lungs, read-out: biodistribution lungs
[11] = muscle, read-out: biodistribution muscle
[12] = pancreas, read-out: biodistribution pancreas
[13] = skin, read-out: biodistribution skin
[14] = spleen, read-out: biodistribution spleen
[15] = stomach, read-out: biodistribution stomach
[16] = tail, read-out: biodistribution tail
[17] = thymus, read-out: biodistribution thymus
[18] = thyroid, read-out: biodistribution thyroid
[19] = total git, read-out: biodistribution tot GIT

For Nc1ccc(O)c(NC(=O)CN(CCN(CC(=O)O)CC(=O)Nc2cc(N)ccc2O)CC(=O)O)c1 [Compound 5], the tissue uptake at 0.5 min [1, 3] was 4.92 %ID/g, the tissue uptake at 1 min [1, 3] was 4.22 %ID/g and the tissue uptake at 0.05 h [1, 3] was 3.26 %ID/g. The tissue uptake at 5 min [1, 3] was 3.13 %ID/g, the tissue uptake at 10 min [1, 3] was 2.59 %ID/g and the tissue uptake at 0.5 min [1, 4] was 0.37 %ID/g. It also gave a tissue uptake at 1 min [1, 4] of 0.45 %ID/g, a tissue uptake at 0.05 h [1, 4] of 0.42 %ID/g and a tissue uptake at 5 min [1, 4] of 0.37 %ID/g. The tissue uptake at 10 min [1, 4] was 0.36 %ID/g, the tissue uptake at 0.5 min [1, 5] was 0.2 %ID/g and the tissue uptake at 1 min [1, 5] was 0.22 %ID/g. It also gave a tissue uptake at 0.05 h [1, 5] of 0.16 %ID/g, a tissue uptake at 5 min [1, 5] of 0.17 %ID/g and a tissue uptake at 10 min [1, 5] of 0.14 %ID/g. It also gave a tissue uptake at 0.5 min [1, 6] of 0.17 %ID/g, a tissue uptake at 1 min [1, 6] of 0.23 %ID/g and a tissue uptake at 0.05 h [1, 6] of 0.19 %ID/g. For the same molecule, the tissue uptake at 5 min [1, 6] was 0.18 %ID/g, the tissue uptake at 10 min [1, 6] was 0.18 %ID/g and the tissue uptake at 0.5 min [1, 7] was 1.81 %ID/g. It also gave a tissue uptake at 1 min [1, 7] of 1.62 %ID/g, a tissue uptake at 0.05 h [1, 7] of 1.24 %ID/g and a tissue uptake at 5 min [1, 7] of 1.15 %ID/g. It also gave a tissue uptake at 10 min [1, 7] of 1.06 %ID/g, a tissue uptake at 0.5 min [1, 8] of 4.35 %ID/g and a tissue uptake at 1 min [1, 8] of 5.7 %ID/g. The tissue uptake at 0.05 h [1, 8] was 4.7 %ID/g, the tissue uptake at 5 min [1, 8] was 6.04 %ID/g and the tissue uptake at 10 min [1, 8] was 3.61 %ID/g. For the same molecule, the tissue uptake at 0.5 min [1, 9] was 1.11 %ID/g, the tissue uptake at 1 min [1, 9] was 0.97 %ID/g and the tissue uptake at 0.05 h [1, 9] was 0.83 %ID/g. The tissue uptake at 5 min [1, 9] was 0.79 %ID/g, the tissue uptake at 10 min [1, 9] was 0.69 %ID/g and the tissue uptake at 0.5 min [1, 10] was 1.66 %ID/g. It also gave a tissue uptake at 1 min [1, 10] of 1.69 %ID/g, a tissue uptake at 0.05 h [1, 10] of 1.31 %ID/g and a tissue uptake at 5 min [1, 10] of 1.25 %ID/g. The tissue uptake at 10 min [1, 10] was 1.17 %ID/g, the tissue uptake at 0.5 min [1, 11] was 0.25 %ID/g and the tissue uptake at 1 min [1, 11] was 0.3 %ID/g. For the same molecule, the tissue uptake at 0.05 h [1, 11] was 0.27 %ID/g, the tissue uptake at 5 min [1, 11] was 0.25 %ID/g and the tissue uptake at 10 min [1, 11] was 0.23 %ID/g. For the same molecule, the tissue uptake at 0.5 min [1, 12] was 0.8 %ID/g, the tissue uptake at 1 min [1, 12] was 0.73 %ID/g and the tissue uptake at 0.05 h [1, 12] was 0.55 %ID/g. For the same molecule, the tissue uptake at 5 min [1, 12] was 0.56 %ID/g, the tissue uptake at 10 min [1, 12] was 0.43 %ID/g and the tissue uptake at 0.5 min [1, 13] was 0.31 %ID/g. The tissue uptake at 1 min [1, 13] was 0.38 %ID/g, the tissue uptake at 0.05 h [1, 13] was 0.43 %ID/g and the tissue uptake at 5 min [1, 13] was 0.41 %ID/g. It also gave a tissue uptake at 10 min [1, 13] of 0.46 %ID/g, a tissue uptake at 0.5 min [1, 14] of 0.83 %ID/g and a tissue uptake at 1 min [1, 14] of 0.98 %ID/g. The tissue uptake at 0.05 h [1, 14] was 0.83 %ID/g, the tissue uptake at 5 min [1, 14] was 0.83 %ID/g and the tissue uptake at 10 min [1, 14] was 0.72 %ID/g. The tissue uptake at 0.5 min [1, 15] was 0.47 %ID/g, the tissue uptake at 1 min [1, 15] was 0.42 %ID/g and the tissue uptake at 0.05 h [1, 15] was 0.36 %ID/g. For the same molecule, the tissue uptake at 5 min [1, 15] was 0.37 %ID/g, the tissue uptake at 10 min [1, 15] was 0.24 %ID/g and the tissue uptake at 0.5 min [1, 16] was 0.22 %ID/g. For the same molecule, the tissue uptake at 1 min [1, 16] was 0.14 %ID/g, the tissue uptake at 0.05 h [1, 16] was 0.17 %ID/g and the tissue uptake at 5 min [1, 16] was 0.15 %ID/g. The tissue uptake at 10 min [1, 16] was 0.19 %ID/g, the tissue uptake at 0.5 min [1, 17] was 0.63 %ID/g and the tissue uptake at 1 min [1, 17] was 0.56 %ID/g. For the same molecule, the tissue uptake at 0.05 h [1, 17] was 0.45 %ID/g, the tissue uptake at 5 min [1, 17] was 0.54 %ID/g and the tissue uptake at 10 min [1, 17] was 0.39 %ID/g. For the same molecule, the tissue uptake at 0.5 min [1, 18] was 1.85 %ID/g, the tissue uptake at 1 min [1, 18] was 2.43 %ID/g and the tissue uptake at 0.05 h [1, 18] was 1.59 %ID/g. It also gave a tissue uptake at 5 min [1, 18] of 1.73 %ID/g, a tissue uptake at 10 min [1, 18] of 1.71 %ID/g and a tissue uptake at 0.5 min [1, 19] of 0.35 %ID/g. The tissue uptake at 1 min [1, 19] was 0.34 %ID/g, the tissue uptake at 0.05 h [1, 19] was 0.31 %ID/g and the tissue uptake at 5 min [1, 19] was 0.29 %ID/g. For the same molecule, the tissue uptake at 10 min [1, 19] was 0.27 %ID/g, the biodistribution urine ([2]; 1 min) was 6.30 % ID and the biodistribution urine ([2]; 3 min) was 8.94 % ID. For the same molecule, the biodistribution urine ([2]; 5 min) was 15.34 % ID, the biodistribution urine ([2]; 10 min) was 14.23 % ID and the biodistribution urine ([2]; 30 min) was 7.76 % ID. For the same molecule, the biodistribution urine ([2]; 120 min) was 3.55 % ID.
